From US20240240126A1, “Microfluidic Barcode-Like Cell Sensor For Microscope-Free Quantitative Detection Of Small Amount Of Cells” (Hong Kong Baptist University, priority 2021, published 2024)
In brackets after ≈: the same amount, converted by molar mass.

Experiments:
[1] = tested on: Isolate 5; test: Broth microdilution AST of drinking water isolate; format: cell-based, Staphylococcus epidermidis; parameters: key: R stands for resistant; details: Isolate 5 from drinking water samples
Procedure: (§1) All tested samples were collected between June 2019 to November 2019 according to the guidelines from ISO 18593:2018 Microbiology of the food chain—Horizontal methods for surface sampling. Also, all of the samples were collected from the drinking fountains in government venues and university facilities, at ten different locations. As said, the surface of the outlet for the drinking fountains was tested by swabbing. In simple words, the surfaces of the drinking fountain's outlet were rubbed by a single use sterilize cotton swab and swished into the Lysogeny broth (LB) broth solution for 1 minute to prepare the sample solutions. Collected samples were kept at 4° C. during the transportation and enriched for 12-14 hours under 37° C. After the enrichment for bacteria, the sample suspensions were spread and streaked onto the LB agar for further bacterial isolation and AST uses. […] If an ID is needed, dilution plating can be used. Besides, antifungals and algal inhibitors can also be added into these samples to against and inhibit the growth of fungi, yeast, and algae.
(§2) All tested samples were collected from drinking fountains at ten different locations in various government venues and university facilities. Sample containers were kept sterile before use in sample collection; the collected samples were kept at 4° C. and analyzed within 24 hours of collection. Sample collection was conducted 3 times for each sampling site and the antimicrobial susceptibility of each sample was tested 3 times. (FIG. 5) Bacterial identification for the real samples was made through the use of Matrix-Assisted Laser Desorption Ionization Time of Flight Imaging Mass Spectrometry (MALDI-TOF IMS). 1 uL of the sample was pipetted onto an Indium tin oxide (ITO) coated glass slide and allowed to dry on a hotplate; the ITO slide with bacteria was then analyzed by MALDI-TOF IMS immediately following matrix application. (FIG. 6, Table 2)
(§3) The broth microdilution (BMD) testing of the samples was performed exactly the same according to the approved standard from CLSI and the procedures described in Nature Protocol. To perform the BMD test, both LB broth medium and the antibiotics were added into the 96-wells microplate. By using a two-fold dilution, a concentration gradient of the antibiotic is generated from 128 μg/mL to 0.125 μg/mL. […] To assess the MIC values for the samples, the microplates were examined visually and the lowest concentration of the antibiotic which prevents visible growth of the bacteria was recorded as the MIC value of that sample. […]

[2] = tested on: Isolate 1; test: Broth microdilution AST of drinking water isolate; format: cell-based, Staphylococcus epidermidis; parameters: key: R stands for resistant; details: Isolate 1 from drinking water samples
Procedure: as §1, §2, §3

[3] = tested on: mixed bacteria sample; test: Broth microdilution AST of mixed bacteria sample; format: cell-based
Procedure: (§4) The broth microdilution (BMD) testing of the samples was performed exactly the same according to the approved standard from CLSI and the procedures described in Nature Protocol. To perform the BMD test, both LB broth medium and the antibiotics were added into the 96-wells microplate. By using a two-fold dilution, a concentration gradient of the antibiotic is generated from 128 μg/mL to 0.125 μg/mL. The bacteria isolates identified inside the samples have been enriched under 37° C. for 8-12 hrs in order to achieve 5×10^6 CFU/mL before the test, 10 uL of the bacterial suspension was inoculated into the broth to achieve a final concentration of bacteria in 5×10^5 CFU/mL. The inoculated microplates were incubated at 37° C. for 16-20 hrs for further inspection. To assess the MIC values for the samples, the microplates were examined visually and the lowest concentration of the antibiotic which prevents visible growth of the bacteria was recorded as the MIC value of that sample. Meanwhile, Mueller Hinton broth was also used to perform the BMD for cross checking purpose; both of the AST results are consistence with the MIC quality control range recommended by CLSI.
(§5) According to the AST results of the present disclosure, all those identified isolates (isolates 1-8) have shown susceptibility to Gentamicin where all of them are resistant to Ampicillin at the same time. […]

[4] = tested on: Isolate 3; test: Broth microdilution AST of drinking water isolate; format: cell-based, Staphylococcus capitis; parameters: key: R stands for resistant; details: Isolate 3 from drinking water samples
Procedure: as §1, §2, §4
(§6) Based on the findings in the present disclosure, multiple bacterial species have been recognized in the testing samples, including bacterial species that have the potential to form biofilm and colonize on the surface of the water dispenser (Table 2). Traditional broth microdilution AST was also performed to verify the AMR assessment results of the present sensor according to the approved standard from CLSI (FIGS. 27A and 27B, Table 4). […] As AMR microbes can exist in the environment all around us, close enough to come into contact with in daily life, they may pose a significant threat to the effective treatment of bacterial infections in the near future if no action is taken. […]

[5] = tested on: Isolate 4; test: Broth microdilution AST of drinking water isolate; format: cell-based, Staphylococcus capitis; parameters: key: R stands for resistant; details: Isolate 4 from drinking water samples
Procedure: as §1, §2, §4, §6

[6] = tested on: Isolate 8; test: Broth microdilution AST of drinking water isolate; format: cell-based, Staphylococcus capitis; parameters: key: R stands for resistant; details: Isolate 8 from drinking water samples
Procedure: as §1, §2, §4, §6

[7] = tested on: identified isolates (isolates 1-8); test: AST of the identified drinking water isolates, overall statement; format: cell-based; details: all identified isolates 1-8
Procedure: as §4, §5

[8] = tested on: E. coli; details: CLSI reference range; cited from earlier work
[9] = tested on: Isolate 2; test: Broth microdilution AST of drinking water isolate; format: cell-based, Citrobacter youngae; parameters: key: R stands for resistant; details: Isolate 2 from drinking water samples
Procedure: as §1, §2, §4, §6

[10] = tested on: Isolate 7; test: Broth microdilution AST of drinking water isolate; format: cell-based, Citrobacter youngae; parameters: key: R stands for resistant; details: Isolate 7 from drinking water samples
Procedure: as §1, §2, §4, §6

[11] = tested on: Isolate 6; test: Broth microdilution AST of drinking water isolate; format: cell-based, Citrobacter youngae; parameters: key: R stands for resistant; details: Isolate 6 from drinking water samples
Procedure: as §1, §2, §4, §6

[12] = tested on: S. aureus; details: CLSI reference range; cited from earlier work
[13] = tested on: E. coli; test: Broth microdilution AST; format: cell-based, Escherichia coli (ATCC 25922)
Procedure: (§7) To conduct an AST on the PP-based AST chip, bacteria were pre-activated inside an incubator for 15 minutes at 37° C. before use. At the beginning of a test, the bacteria are injected through Inlet 3; the injection of the bacteria was monitored under the fluorescence microscope (FIG. 24A). After the bacteria were inoculated into the cultivation chambers, antibiotic-doped media and media alone are injected into inlet 1 and inlet 2 at a rate of 1 μL/minute, respectively (FIG. 24B). The AST chip was then incubated on a thermostat platform at 37° C. for 2 hours. To assess AMR, the bacteria inside the culture chambers of the PP AST chip were flushed into the barcode cell sensor at a rate of 1 μL/minute. […] For comparison, AST was also performed using the traditional broth microdilution method as shown in FIG. 27; the MIC values of the bacteria were assessed as the lowest concentration of antibiotics with no visible growth of bacteria.
(§8) The broth microdilution (BMD) testing of the samples was performed exactly the same according to the approved standard from CLSI and the procedures described in Nature Protocol. […] To assess the MIC values for the samples, the microplates were examined visually and the lowest concentration of the antibiotic which prevents visible growth of the bacteria was recorded as the MIC value of that sample.

[14] = tested on: S. aureus; test: Broth microdilution AST; format: cell-based, Staphylococcus aureus (ATCC 29213)
Procedure: as §7, §8

[15] = tested on: E. coli; test: AST with the present barcode cell sensor (PP microfluidic AST chip); format: cell-based, Escherichia coli (ATCC 25922)
Procedure: as §7
As said, the bacteria samples have been flushed into the “barcode” cell sensor after 2 hours incubation, the accumulated bacteria bars with different lengths will be formed. […] Thus, the MIC value of the samples can be assessed by looking at the point (in a specific concentration of a given antibiotic) of the bacterial growth with significant differences using the comparison of the log [slope] values. […]

[16] = tested on: S. aureus; test: as above; format: cell-based, Staphylococcus aureus (ATCC 29213)
Procedure: To conduct an AST on the PP-based AST chip, bacteria were pre-activated inside an incubator for 15 minutes at 37° C. before use. At the beginning of a test, the bacteria are injected through Inlet 3; the injection of the bacteria was monitored under the fluorescence microscope (FIG. 24A). After the bacteria were inoculated into the cultivation chambers, antibiotic-doped media and media alone are injected into inlet 1 and inlet 2 at a rate of 1 μL/minute, respectively (FIG. 24B). The AST chip was then incubated on a thermostat platform at 37° C. for 2 hours. To assess AMR, the bacteria inside the culture chambers of the PP AST chip were flushed into the barcode cell sensor at a rate of 1 μL/minute. Gram staining agent was used during the flushing process to make bacteria inside the barcode cell sensor visible be captured by a cell phone camera. For comparison, AST was also performed using the traditional broth microdilution method as shown in FIG. 27; the MIC values of the bacteria were assessed as the lowest concentration of antibiotics with no visible growth of bacteria.

Molecule	AST result (MIC) [1]	AST result (MIC) [2]	AST result in words ([3]; FIG. 27B)	AST result (MIC) [4]	AST result (MIC) [5]	AST result (MIC) [6]	AST result in words (susceptibility / resistance) [7]	MIC-CLSI [8]	AST result (MIC) [9]	AST result (MIC) [10]	AST result (MIC) [11]	MIC-CLSI [12] [µg/mL]	MIC-Broth Microdilution [13]	MIC ([14]; Staphylococcus aureus) [µg/mL]	MIC-"barcode" Chip [15]	MIC ([16]; Staphylococcus aureus) [µg/mL]	MIC value ([3]; FIG. 27A) [µg/mL]	MIC-Broth Microdilution [14] [µg/mL]	MIC-"barcode" Chip [16] [µg/mL]
CC1(C)S[C@@H]2[C@H](NC(=O)[C@H](N)c3ccccc3)C(=O)N2[C@H]1C(=O)O [Ampicillin]	R	R	resistance	R	R	R	resistant	2 to 8 µg/mL	R	R	R	0.5 to 2	–	–	–	–	–	–	–
CC[C@H]1OC(=O)[C@H](C)[C@@H](O[C@H]2C[C@@](C)(OC)[C@@H](O)[C@H](C)O2)[C@H](C)[C@@H](O[C@@H]2O[C@H](C)C[C@H](N(C)C)[C@H]2O)[C@](C)(O)C[C@@H](C)C(=O)[C@H](C)[C@@H](O)[C@]1(C)O [Erythromycin, erythromycin]	–	–	–	–	–	–	–	Resistant	–	–	–	0.25 to 1	Resistant	0.25 to 1 (≈ 0.341 to 1.36 µM)	Resistant	0.4 to 0.6 (≈ 0.545 to 0.818 µM)	–	–	–
Gentamicin	4 µg/mL	4 µg/mL	–	16 µg/mL	16 to 32 µg/mL	16 to 32 µg/mL	susceptibility	0.25 to 1 µg/mL	16 µg/mL	16 to 32 µg/mL	2 to 4 µg/mL	0.12 to 1	0.25 to 0.5 µg/mL	–	–	–	4 to 8	0.25 to 0.5	0.25 to 0.5
